Assay results taken from patent publication US5106407A, “Iodones and methods for antimicrobial use” (priority 1989, dated 1992).

Key:
[1] = system: bacteria listed in Table I, Klebsiella oxytoca, Enterobacter gergoviae, Pseudomonas putida #1, and Pseudomonas putida #2; test: hand lotion preservation test;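 also: colony count scale from 1 for no colonies up to 10 for a solid mass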
Procedure: (§1) Fifty gram aliquots of the latex were placed in sterile bottles and one hundred gram aliquots of the diluted cutting oil were placed in 250-mL Erlenmeyer flasks. An appropriate amount of a fresh 1 percent stock solution of (2-nitrophenyl)-iodonium 2,2-dimethyl-4,6-dioxo-1,3-dioxan-5-ylide in acetone-water was added to achieve the desired final concentrations (see Tables 5 and 6). A small portion of the respective latex or cutting oil preparation was then streaked onto Tryptic Soy Agar (TSA) petri plates using sterile cotton swabs to determine whether the preparations were sterile. If the particular preparation was sterile, it was then inoculated with an appropriate volume (0.1 mL for the latex and 0.2 mL for the cutting oil) of a mixture of equal aliquots of 24 hr cultures of each of the bacterial organisms listed in Table 1 (not the fungi and yeast). The latex samples were incubated at 30° C. and the cutting oils were agitated on a rotary shaker at room temperature. After 24 hr, all samples were again streaked on TSA. All plates were then incubated at 30° C. for 48 hr and then rated 1 to 10 according to the growth rating system described in Table 4.
(§2) The results from this first set of streaks after inoculation are listed in the columns labeled streak number 1 in Tables 5 and 6. Samples with a rating of 3 or less from streak number 1 were reinoculated as described for the first inoculation above. Samples with a rating of 4 or greater were not reinoculated. After another 24 hr all samples were again restreaked on TSA agar. The results from these second streaks were labeled streak number 2 in Tables 5 and 6. Samples were reinoculated and restreaked in this fashion for a maximum of 10 streaks. Any samples with two streaks in a row with a ten rating were not restreaked again.
(§3) The ingredients of the hand creme, hand lotion, and protein shampoo are listed in Tables 7, 8 and 9, respectively. In the cosmetic preservative procedures, the stock solution of (2-nitrophenyl)-iodonium 2,2-dimethyl-4,6-dioxo-1,3-dioxan-5-ylide) was made in dimethylformamide (DMF)/water solution. In addition to the bacteria listed in Table I, the following bacteria were also included in the inocula: Klebsiella oxytoca, Enterobacter gergoviae, Pseudomonas putida #1, and Pseudomonas putida #2.

[2] = system: mixture of bacterial organisms listed in Table 1; test: cutting oil preservation test;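 also: colony count scale from 1 for no colonies up to 10 for a solid mass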
Procedure: as §1, §2

[3] = system: bacteria listed in Table I, Klebsiella oxytoca, Enterobacter gergoviae, Pseudomonas putida #1, and Pseudomonas putida #2; test: hand creme preservation test
Procedure: as §1, §2, §3

Structure (SMILES): CC1(C)OC(=O)[C-]([I+]c2ccccc2[N+](=O)[O-])C(=O)O1 [Example 19, (2-Nitrophenyl)-iodonium 2,2-dimethyl-4,6-dioxo-1,3-dioxan-5-ylide]
- growth rating ([1]; 10 ppm, streak 1): 1 (0)
- growth rating ([1]; 10 ppm, streak 2): 1 (0)
- growth rating ([1]; 10 ppm, streak 3): 2 (1-4)
- growth rating ([1]; 10 ppm, streak 6): 9
- growth rating ([1]; 10 ppm, streak 8): 9
- growth rating ([1]; 10 ppm, streak 9): 10
- growth rating ([1]; 10 ppm, streak 10): 10
- growth rating ([1]; 25 ppm, streak 1): 1 (0)
- growth rating ([1]; 25 ppm, streak 2): 1 (0)
- growth rating ([1]; 25 ppm, streak 3): 1 (0)
- growth rating ([1]; 25 ppm, streak 4): 1 (0)
- growth rating ([1]; 25 ppm, streak 5): 1 (0)
- growth rating ([1]; 25 ppm, streak 6): 1 (0)
- growth rating ([1]; 25 ppm, streak 7): 1 (0)
- growth rating ([1]; 25 ppm, streak 8): 1 (0)
- growth rating ([1]; 25 ppm, streak 9): 1 (0)
- growth rating ([1]; 25 ppm, streak 10): 2 (1-4)
- growth rating ([1]; 50 ppm, streak 1): 1 (0)
- growth rating ([1]; 50 ppm, streak 2): 1 (0)
- growth rating ([1]; 50 ppm, streak 3): 1 (0)
- growth rating ([1]; 50 ppm, streak 4): 1 (0)
- growth rating ([1]; 50 ppm, streak 5): 1 (0)
- growth rating ([1]; 50 ppm, streak 6): 1 (0)
- growth rating ([1]; 50 ppm, streak 7): 1 (0)
- growth rating ([1]; 50 ppm, streak 8): 1 (0)
- growth rating ([1]; 50 ppm, streak 9): 1 (0)
- growth rating ([1]; 50 ppm, streak 10): 1 (0)
- growth rating ([1]; 100 ppm, streak 1): 1 (0)
- growth rating ([1]; 100 ppm, streak 2): 1 (0)
- growth rating ([1]; 100 ppm, streak 3): 1 (0)
- growth rating ([1]; 100 ppm, streak 4): 1 (0)
- growth rating ([1]; 100 ppm, streak 5): 1 (0)
- growth rating ([1]; 100 ppm, streak 6): 1 (0)
- growth rating ([1]; 100 ppm, streak 7): 1 (0)
- growth rating ([1]; 100 ppm, streak 8): 1 (0)
- growth rating ([1]; 100 ppm, streak 9): 1 (0)
- growth rating ([1]; 100 ppm, streak 10): 1 (0)
- growth rating ([2]; 25 ppm, streak 1): 1 (0)
- growth rating ([2]; 25 ppm, streak 2): 9
- growth rating ([2]; 25 ppm, streak 3): 10
- growth rating ([2]; 25 ppm, streak 4, restreaking not continued): 10
- growth rating ([2]; 50 ppm, streak 1): 1 (0)
- growth rating ([2]; 50 ppm, streak 2): 2 (1-4)
- growth rating ([2]; 50 ppm, streak 3): 10
- growth rating ([2]; 50 ppm, streak 4, restreaking not continued): 10
- growth rating ([2]; 100 ppm, streak 1): 1 (0)
- growth rating ([2]; 100 ppm, streak 2): 2 (1-4)
- growth rating ([2]; 100 ppm, streak 3): 2 (1-4)
- growth rating ([2]; 100 ppm, streak 4): 1 (0)
- growth rating ([2]; 100 ppm, streak 5): 10
- growth rating ([2]; 100 ppm, streak 6, restreaking not continued): 10
- growth rating ([2]; 250 ppm, streak 1): 1 (0)
- growth rating ([2]; 250 ppm, streak 2): 1 (0)
- growth rating ([2]; 250 ppm, streak 3): 1 (0)
- growth rating ([2]; 250 ppm, streak 4): 1 (0)
- growth rating ([2]; 250 ppm, streak 5): 1 (0)
- growth rating ([2]; 250 ppm, streak 6): 1 (0)
- growth rating ([2]; 250 ppm, streak 7): 1 (0)
- growth rating ([2]; 250 ppm, streak 8): 1 (0)
- growth rating ([2]; 250 ppm, streak 9): 6 (51-100)
- growth rating ([2]; 250 ppm, streak 10): 10
- growth rating ([2]; 500 ppm, streak 1): 1 (0)
- growth rating ([2]; 500 ppm, streak 2): 1 (0)
- growth rating ([2]; 500 ppm, streak 3): 1 (0)
- growth rating ([2]; 500 ppm, streak 4): 1 (0)
- growth rating ([2]; 500 ppm, streak 5): 1 (0)
- growth rating ([2]; 500 ppm, streak 6): 1 (0)
- growth rating ([2]; 500 ppm, streak 7): 1 (0)
- growth rating ([2]; 500 ppm, streak 8): 1 (0)
- growth rating ([2]; 500 ppm, streak 9): 1 (0)
- growth rating ([2]; 500 ppm, streak 10): 1 (0)
- growth rating ([2]; 1000 ppm, streak 1): 1 (0)
- growth rating ([2]; 1000 ppm, streak 2): 1 (0)
- growth rating ([2]; 1000 ppm, streak 3): 1 (0)
- growth rating ([2]; 1000 ppm, streak 4): 1 (0)
- growth rating ([2]; 1000 ppm, streak 5): 1 (0)
- growth rating ([2]; 1000 ppm, streak 6): 1 (0)
- growth rating ([2]; 1000 ppm, streak 7): 1 (0)
- growth rating ([2]; 1000 ppm, streak 8): 1 (0)
- growth rating ([2]; 1000 ppm, streak 9): 1 (0)
- growth rating ([2]; 1000 ppm, streak 10): 1 (0)
- growth rating ([3]; 10 ppm, streak 1): 1 (0)
- growth rating ([3]; 10 ppm, streak 2): 1 (0)
- growth rating ([3]; 10 ppm, streak 3): 1 (0)
- growth rating ([3]; 10 ppm, streak 4): 1 (0)
- growth rating ([3]; 10 ppm, streak 5): 1 (0)
- growth rating ([3]; 10 ppm, streak 6): 5 (26-50)
- growth rating ([3]; 10 ppm, streak 7): 1 (0)
- growth rating ([3]; 10 ppm, streak 8): 8 (210-300)
- growth rating ([3]; 10 ppm, streak 9): 1 (0)
- growth rating ([3]; 10 ppm, streak 10): 7 (101-200)
- growth rating ([3]; 50 ppm, streak 1): 1 (0)
- growth rating ([3]; 50 ppm, streak 2): 1 (0)
- growth rating ([3]; 50 ppm, streak 3): 1 (0)
- growth rating ([3]; 50 ppm, streak 4): 1 (0)
- growth rating ([3]; 50 ppm, streak 5): 1 (0)
- growth rating ([3]; 50 ppm, streak 6): 1 (0)
- growth rating ([3]; 50 ppm, streak 7): 1 (0)
- growth rating ([3]; 50 ppm, streak 8): 1 (0)
- growth rating ([3]; 50 ppm, streak 9): 1 (0)
- growth rating ([3]; 50 ppm, streak 10): 7 (101-200)
- growth rating ([3]; 100 ppm, streak 1): 1 (0)
- growth rating ([3]; 100 ppm, streak 2): 1 (0)
- growth rating ([3]; 100 ppm, streak 3): 1 (0)
- growth rating ([3]; 100 ppm, streak 4): 1 (0)
- growth rating ([3]; 100 ppm, streak 5): 1 (0)
- growth rating ([3]; 100 ppm, streak 6): 1 (0)
- growth rating ([3]; 100 ppm, streak 7): 1 (0)
- growth rating ([3]; 100 ppm, streak 8): 1 (0)
- growth rating ([3]; 100 ppm, streak 9): 4 (11-25)
- growth rating ([3]; 100 ppm, streak 10): 7 (101-200)
